Results published in patent publication US12655106B2 (Eikonizo Therapeutics, Inc., priority 2021, dated 2026).

Legend:
Full length Human HDAC6 = molecular target: T1, Full length Human HDAC6 (Homo sapiens, UniProt Q9UBN7); assay: Caliper endpoint assay for HDAC enzymatic activity (HDAC6); format: biochemical; details: for IC50: in vitro enzymatic, Caliper endpoint assay, 30 min pre-incubation, 1 μM substrate peptide; for Selectivity (6 v 8): ratio of HDAC8 IC50/HDAC6 IC50
T1 construct: Full length Human HDAC6; FLAG (C); host or cells: baculovirus expression system
T1 sequence (Q9UBN7 1-1215): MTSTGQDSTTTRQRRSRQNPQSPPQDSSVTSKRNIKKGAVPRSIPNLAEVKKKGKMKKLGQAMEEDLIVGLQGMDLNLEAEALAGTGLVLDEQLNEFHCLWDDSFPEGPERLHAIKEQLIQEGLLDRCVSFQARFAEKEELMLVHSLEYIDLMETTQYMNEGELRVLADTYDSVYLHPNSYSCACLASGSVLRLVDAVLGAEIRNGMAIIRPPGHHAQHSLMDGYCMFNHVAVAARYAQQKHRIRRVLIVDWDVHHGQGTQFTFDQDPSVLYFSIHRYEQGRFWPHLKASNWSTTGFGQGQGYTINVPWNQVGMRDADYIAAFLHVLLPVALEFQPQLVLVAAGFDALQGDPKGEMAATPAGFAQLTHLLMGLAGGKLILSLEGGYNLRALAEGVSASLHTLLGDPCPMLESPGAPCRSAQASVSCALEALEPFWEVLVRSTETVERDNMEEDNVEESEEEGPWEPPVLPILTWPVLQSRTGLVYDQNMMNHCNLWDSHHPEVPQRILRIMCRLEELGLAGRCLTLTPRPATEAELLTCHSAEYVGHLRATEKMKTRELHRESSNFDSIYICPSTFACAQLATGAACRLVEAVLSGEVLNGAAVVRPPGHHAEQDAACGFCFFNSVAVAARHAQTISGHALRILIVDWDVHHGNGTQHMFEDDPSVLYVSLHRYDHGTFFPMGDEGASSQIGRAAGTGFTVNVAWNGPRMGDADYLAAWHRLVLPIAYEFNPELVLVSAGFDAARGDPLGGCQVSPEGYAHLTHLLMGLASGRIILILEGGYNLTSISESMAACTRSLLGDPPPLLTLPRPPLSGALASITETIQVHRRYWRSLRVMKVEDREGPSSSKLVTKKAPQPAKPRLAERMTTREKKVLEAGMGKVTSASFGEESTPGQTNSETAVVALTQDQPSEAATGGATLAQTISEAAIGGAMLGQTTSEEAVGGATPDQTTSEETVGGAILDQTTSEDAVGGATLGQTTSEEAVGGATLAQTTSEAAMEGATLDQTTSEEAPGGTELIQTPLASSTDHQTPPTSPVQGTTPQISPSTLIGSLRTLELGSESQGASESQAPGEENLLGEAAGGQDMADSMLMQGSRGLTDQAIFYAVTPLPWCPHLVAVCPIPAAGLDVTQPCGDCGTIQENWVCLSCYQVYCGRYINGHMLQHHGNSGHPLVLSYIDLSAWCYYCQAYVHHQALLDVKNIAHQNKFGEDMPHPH

Full length Human HDAC8 = molecular target: T2, Full length Human HDAC8 (Homo sapiens, UniProt Q9BY41); assay: Caliper endpoint assay for HDAC enzymatic activity (HDAC8); format: biochemical; details: in vitro enzymatic, 30 min pre-incubation, 1 μM substrate peptide
T2 construct: Full length Human HDAC8; HIS (N); host or cells: baculovirus expression system
T2 sequence (Q9BY41 1-377): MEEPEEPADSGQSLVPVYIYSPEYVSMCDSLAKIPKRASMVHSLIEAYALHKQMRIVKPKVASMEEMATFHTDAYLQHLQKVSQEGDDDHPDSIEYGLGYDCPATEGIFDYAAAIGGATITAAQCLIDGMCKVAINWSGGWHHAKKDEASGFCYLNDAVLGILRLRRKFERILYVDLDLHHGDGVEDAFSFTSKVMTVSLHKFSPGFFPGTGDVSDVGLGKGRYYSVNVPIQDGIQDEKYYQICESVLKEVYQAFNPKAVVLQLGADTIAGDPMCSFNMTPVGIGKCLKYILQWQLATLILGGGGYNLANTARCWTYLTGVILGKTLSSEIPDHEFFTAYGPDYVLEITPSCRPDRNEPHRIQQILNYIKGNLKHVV

| SMILES | IC50 (Full length Human HDAC6) | Selectivity (6 v 8) (Full length Human HDAC6) | IC50 (Full length Human HDAC8) |
| --- | --- | --- | --- |
| CN1CC[C@@]2(CC[C@H]2N2CCc3cc(C(=O)NO)cc(F)c3C2)C1 (single isomer, unassigned) [Compound 331] | 0.001 to 0.1 µM | IV (IV: >100-1000) | 10 to 100 µM |
| CC[C@@H]1Cc2c(F)cc(C(=O)NO)cc2CN1C[C@@]12C[C@@H](CO1)N(C)C2 (single isomer, unassigned) [Compound 555] | > 100 µM | V (V: >1000) | > 100 µM |
| CC[C@H]1Cc2c(F)cc(C(=O)NO)cc2CN1C1CC2(CCCCC2)C1 (single isomer, unassigned) [Compound 233] | 0.001 to 0.1 µM | IV (IV: >100-1000) | 10 to 100 µM |
| CN1CC[C@H](N2CCc3cc(C(=O)NO)cc(F)c3C2)CC12CCC2 (single isomer, unassigned) [Compound 437] | 0.001 to 0.1 µM | IV (IV: >100-1000) | 10 to 100 µM |
| C[C@@H]1CC[C@@H]2c3c(F)cc(C(=O)NO)cc3CCN12 (single isomer, unassigned) [Compound 156] | 0.1 to 1 µM |  | 1 to 10 µM |
| CC(=O)N1CC[C@H](N2CCc3cc(C(=O)NO)cc(F)c3C2)CC12CCC2 (single isomer, unassigned) [Compound 441] | 0.001 to 0.1 µM | IV (IV: >100-1000) | 1 to 10 µM |
| CC[C@@H]1Cc2c(F)cc(C(=O)NO)cc2CN1C[C@]12C[C@H](CO1)N(C)C2 (single isomer, unassigned) [Compound 554] | 0.001 to 0.1 µM | IV (IV: >100-1000) | 1 to 10 µM |
| O=C(NO)c1ccc2c(c1)CCN1CCC[C@@H]21 [Compound 149] | 0.1 to 1 µM | II (II: >1-10) | 1 to 10 µM |
| CN1C[C@]2(CN3CCc4cc(C(=O)NO)cc(F)c4C3)C[C@H]1CO2 [Compound 475, 8-fluoro-2-[[(1R,4S)-5-methyl-2-oxa-5-azabicyclo[2.2.1]heptan-1-yl]methyl]-3,4-dihydro-1H-isoquinoline-6-carbohydroxamic acid] | 0.001 to 0.1 µM | IV (IV: >100-1000) | 10 to 100 µM |
| CC[C@H]1Cc2c(F)cc(C(=O)NO)cc2CN1CC12CC(C1)N(C)C2 (single isomer, unassigned) [Compound 535] | 0.001 to 0.1 µM | IV (IV: >100-1000) | 1 to 10 µM |
| O=C(NO)c1cc(F)c2c(c1)CCN(C1CCC3(CC1)C[S+]([O-])C3)C2 (stereo not shown) [Compound 426, 8-fluoro-2-(2-oxo-2MA-thiaspiro[3.5]nonan-7-yl)-3,4-dihydro-1H-isoquinoline-6-carbohydroxamic acid] | 0.001 to 0.1 µM | V (V: >1000) | > 100 µM |
| O=C(NO)c1cc(F)c2c(c1)CCN(CC13CCC(CC1)C(=O)N3)C2 [Compound 461, 8-fluoro-2-[(3-oxo-2-azabicyclo[2.2.2]octan-1-yl)methyl]-3,4-dihydro-1H-isoquinoline-6-carbohydroxamic acid] | 0.001 to 0.1 µM | V (V: >1000) | 1 to 10 µM |
| CC[C@H]1Cc2c(F)cc(C(=O)NO)cc2CN1CC1C2CC1CN(C)C2 (single isomer, unassigned) [Compound 531] | 0.001 to 0.1 µM | V (V: >1000) | > 100 µM |
| C[C@@H]1C[C@H]2c3c(F)cc(C(=O)NO)cc3CCN2C1 (single isomer, unassigned) [Compound 152] | 0.001 to 0.1 µM |  | 1 to 10 µM |
